The values below come from PMC7699745, “The Search for New Anticonvulsants in a Group of (2,5-Dioxopyrrolidin-1-yl)(phenyl)Acetamides with Hybrid Structure—Synthesis and In Vivo/In Vitro Studies” (International Journal of Molecular Sciences, 2020).

Read-outs that look alike come from different tables or passages of the source.

In series [1] the test system is MES seizures, mice. As to the kind of experiment: Maximal electroshock (MES) seizure test. The note with it: Mus musculus, ip; for responders at 100 mg/kg: 0.5 h, i.p.; for ED50: at TPE (0.5 h; LTG 1.0 h), 95% confidence intervals in parentheses. The format is in vivo. Background: In the maximal electroshock model the usual endpoint is tonic extension of the hind limbs.

The test system of series [2] is 6 Hz (32 mA) seizures, mice. The series is described as follows: Psychomotor 6 Hz (32 mA) seizure model. In kind it is in vivo. The note with it: for responders at 100 mg/kg / ED50: Mus musculus, ip; for responders at 100 mg/kg / protection in the 6 Hz (32 mA) test: 0.5 h, 100 mg/kg; for responders at 100 mg/kg: read-out: 6 Hz (32 mA) test, number of mice protected / number of mice tested (converted); for ED50: at TPE (0.5 h; LTG 1.0 h), 95% confidence intervals in parentheses; for protection in the 6 Hz (32 mA) test: i.p., groups of four.

A short description of series [3]: Rotarod test for acute neurological toxicity. The conditions noted are these: mouse, in vivo, ip. On the technique in general: The rotarod test checks motor coordination on a turning rod.
Series [4] relates to motor coordination of mice. As to the kind of experiment: Rotarod test for acute neurological toxicity. The conditions noted are these: for impairment of motor coordination of mice: doses as high as 300 mg/kg; for Rotarod test, number of mice / number of mice tested: i.p., 100 mg/kg, 0.5 h.
[5] abbreviates: read-out: MES test, number of mice protected / number of mice tested (converted).
[6] abbreviates: groups of four, read-out: protection in the MES test.

For `O=C(Nc1cccc(F)c1)C(c1ccccc1)N1C(=O)CCC1=O` (stereo not shown) [Compound 5, 2-(2,5-Dioxopyrrolidin-1-yl)-N-(3-fluorophenyl)-2-phenylacetamide], the results for the responders at 100 mg/kg in series [1] (setting [5]) and in series [2] were 0% and 25%, respectively.
Broadly, the TD50 is the dose at which the toxic effect under study appears in half of the subjects. A high value points to harm only at a large dose. For orientation: ED50 means the dose at which the effect has come halfway, by size or by number of responders. What is called melting point is the temperature of the solid-liquid transition. Compound `O=C(Nc1ccc(F)cc1)C(c1ccccc1)N1C(=O)CCC1=O` (stereo not shown) [Compound 6, 2-(2,5-Dioxopyrrolidin-1-yl)-N-(4-fluorophenyl)-2-phenylacetamide] showed a melting point of 143.4 to 143.9 °C. In series [3], this compound displayed a TD50 at 0.5 h above 300 mg/kg. Moreover, in series [4], the “impairment of motor coordination of mice” value is given as “did not impair motor coordination” and the “Rotarod test, number of mice / number of mice tested” value is on record as 0/4. Also, the responders at 100 mg/kg in series [1] (setting [6]) is at least 50%. In series [1] (setting [5]), the responders at 100 mg/kg is 50%. For the same compound, the ED50 in series [1] is 118 mg/kg. Moreover, in series [2], the responders at 100 mg/kg was 50%, the ED50 is 57.6 mg/kg and the “protection in the 6 Hz (32 mA) test” value is listed as “at least 50%”.
Regarding `O=C(Nc1ccccc1Cl)C(c1ccccc1)N1C(=O)CCC1=O` (stereo not shown) [Compound 7, N-(2-Chlorophenyl)-2-(2,5-dioxopyrrolidin-1-yl)-2-phenylacetamide], the melting point fell in the range of 76.8 to 78.6 °C. In series [1] (setting [5]), the responders at 100 mg/kg was 0%. In addition, the responders at 100 mg/kg in series [2] was 25%.
The compound `O=C(Nc1cccc(Cl)c1)C(c1ccccc1)N1C(=O)CCC1=O` (stereo not shown) [Compound 8, N-(3-Chlorophenyl)-2-(2,5-dioxopyrrolidin-1-yl)-2-phenylacetamide] displayed a melting point of 109.4 to 109.9 °C. The compound also showed a TD50 at 0.5 h in series [3] above 300 mg/kg. Besides, in series [4], the “impairment of motor coordination of mice” value was “did not impair motor coordination” and the “Rotarod test, number of mice / number of mice tested” value was 0/4. For the same compound, in series [1] (setting [6]), the responders at 100 mg/kg was at least 50%. Moreover, in series [1] (setting [5]), the responders at 100 mg/kg was 75%. Moreover, the ED50 in series [1] was found to be 73.5 mg/kg. In addition, in series [2], the responders at 100 mg/kg was 25%.
`O=C(Nc1ccc(Cl)cc1)C(c1ccccc1)N1C(=O)CCC1=O` (stereo not shown) [Compound 9, N-(4-Chlorophenyl)-2-(2,5-dioxopyrrolidin-1-yl)-2-phenylacetamide]: the melting point fell in the range of 103.8 to 105.6 °C. In addition, the TD50 at 0.5 h in series [3] is above 300 mg/kg. Further, in series [4], the “impairment of motor coordination of mice” value is recorded as “did not impair motor coordination” and the “Rotarod test, number of mice / number of mice tested” value is recorded as 0/4. For the same compound, the responders at 100 mg/kg in series [1] (setting [6]) was at least 50%. Further, the responders at 100 mg/kg in series [1] (setting [5]) was 75%. Besides, the ED50 in series [1] worked out at 106 mg/kg. For the same compound, the responders at 100 mg/kg in series [2] was 25%.
For the compound `O=C(Nc1ccccc1C(F)(F)F)C(c1ccccc1)N1C(=O)CCC1=O` (stereo not shown) [Compound 10, 2-(2,5-Dioxopyrrolidin-1-yl)-2-phenyl-N-(2-(trifluoromethyl)phenyl)acetamide], the responders at 100 mg/kg in series [1] (setting [5]) was 0%.
Compound `O=C(Nc1cccc(C(F)(F)F)c1)C(c1ccccc1)N1C(=O)CCC1=O` (stereo not shown) [Compound 11, 2-(2,5-Dioxopyrrolidin-1-yl)-2-phenyl-N-(3-(trifluoromethyl)phenyl)acetamide] came in with a melting point of 158.2 to 159.4 °C. Besides, the responders at 100 mg/kg in series [1] (setting [5]) was 25%.
The compound `O=C(Nc1ccc(C(F)(F)F)cc1)C(c1ccccc1)N1C(=O)CCC1=O` (stereo not shown) [Compound 12, 2-(2,5-Dioxopyrrolidin-1-yl)-2-phenyl-N-(4-(trifluoromethyl)phenyl)acetamide] displayed a melting point of 188.1 to 188.5 °C. Also, in series [1] (setting [5]), the responders at 100 mg/kg was 0%.
Compound `O=C(Nc1cccc(OC(F)(F)F)c1)C(c1ccccc1)N1C(=O)CCC1=O` (stereo not shown) [Compound 13, 2-(2,5-Dioxopyrrolidin-1-yl)-2-phenyl-N-(3-(trifluoromethoxy)phenyl)acetamide] had a melting point of 132.6 to 133.4 °C. Besides, the responders at 100 mg/kg in series [1] (setting [5]) was 0%.
Turning to `O=C(NCc1ccccc1)C(c1ccccc1)N1C(=O)CCC1=O` (stereo not shown) [Compound 14, N-Benzyl-2-(2,5-dioxopyrrolidin-1-yl)-2-phenylacetamide], the melting point was 128.3 to 129.9 °C. In series [3], the TD50 at 0.5 h was above 300 mg/kg. In addition, in series [4], the “impairment of motor coordination of mice” value is recorded as “did not impair motor coordination” and the “Rotarod test, number of mice / number of mice tested” value is recorded as 1/4. For the same compound, the responders at 100 mg/kg in series [1] (setting [6]) is at least 50%. Further, the responders at 100 mg/kg in series [1] (setting [5]) is 50%. In addition, the ED50 in series [1] was above 130 mg/kg. In series [2], the responders at 100 mg/kg was 50%, the ED50 was found to be 62.9 mg/kg and the “protection in the 6 Hz (32 mA) test” value is given as “at least 50%”.
Take `O=C(NCc1ccccc1F)C(c1ccccc1)N1C(=O)CCC1=O` (stereo not shown) [Compound 15, 2-(2,5-Dioxopyrrolidin-1-yl)-N-(2-fluorobenzyl)-2-phenylacetamide]: the melting point fell in the range of 148.3 to 149.3 °C. Besides, the responders at 100 mg/kg in series [1] (setting [5]) is 25%.
The corresponding values for `O=C(NCc1cccc(F)c1)C(c1ccccc1)N1C(=O)CCC1=O` (stereo not shown) [Compound 16, 2-(2,5-Dioxopyrrolidin-1-yl)-N-(3-fluorobenzyl)-2-phenylacetamide] are 136.7 to 137.7 °C and 25%.
The corresponding values for `O=C(NCc1ccc(F)cc1)C(c1ccccc1)N1C(=O)CCC1=O` (stereo not shown) [Compound 17, 2-(2,5-Dioxopyrrolidin-1-yl)-N-(4-fluorobenzyl)-2-phenylacetamide] are 146.3 to 147.7 °C and 0%.
`O=C(NCc1ccccc1Cl)C(c1ccccc1)N1C(=O)CCC1=O` (stereo not shown) [Compound 18, N-(2-Chlorobenzyl)-2-(2,5-dioxopyrrolidin-1-yl)-2-phenylacetamide] yielded a melting point of 152 to 153.6 °C. Besides, the responders at 100 mg/kg in series [1] (setting [5]) was 0%.
`O=C(NCc1cccc(Cl)c1)C(c1ccccc1)N1C(=O)CCC1=O` (stereo not shown) [Compound 19, N-(3-Chlorobenzyl)-2-(2,5-dioxopyrrolidin-1-yl)-2-phenylacetamide] had a TD50 at 0.5 h in series [3] above 300 mg/kg. In series [4], the “impairment of motor coordination of mice” value is reported as “did not impair motor coordination” and the “Rotarod test, number of mice / number of mice tested” value is reported as 0/4. Further, in series [1] (setting [6]), the responders at 100 mg/kg was at least 50%. In addition, the responders at 100 mg/kg in series [1] (setting [5]) is 75%. Further, in series [1], the ED50 worked out at 90.7 mg/kg. In series [2], the responders at 100 mg/kg is 50%, the ED50 worked out at 89.9 mg/kg and the “protection in the 6 Hz (32 mA) test” value is on record as “at least 50%”.
Regarding `O=C(NCc1ccc(Cl)cc1)C(c1ccccc1)N1C(=O)CCC1=O` (stereo not shown) [Compound 20, N-(4-Chlorobenzyl)-2-(2,5-dioxopyrrolidin-1-yl)-2-phenylacetamide], the melting point lay in the range of 146.3 to 147.9 °C. In addition, the responders at 100 mg/kg in series [1] (setting [5]) was 0%.
`O=C(NCc1cccc(C(F)(F)F)c1)C(c1ccccc1)N1C(=O)CCC1=O` (stereo not shown) [Compound 22, 2-(2,5-Dioxopyrrolidin-1-yl)-2-phenyl-N-(3-(trifluoromethyl)benzyl)acetamide] returned a melting point of 152.8 to 153.4 °C. This compound came in with a TD50 at 0.5 h in series [3] above 300 mg/kg. Further, in series [4], the “impairment of motor coordination of mice” value was “did not impair motor coordination” and the “Rotarod test, number of mice / number of mice tested” value is given as 0/4. The responders at 100 mg/kg in series [1] (setting [6]) is at least 50%. Besides, the responders at 100 mg/kg in series [1] (setting [5]) was 75%. Besides, the ED50 in series [1] is above 130 mg/kg. Also, in series [2], the responders at 100 mg/kg was 50%, the ED50 stood at 57.6 mg/kg and the “protection in the 6 Hz (32 mA) test” value is given as “at least 50%”.
For `O=C(NCc1ccc(C(F)(F)F)cc1)C(c1ccccc1)N1C(=O)CCC1=O` (stereo not shown) [Compound 23, 2-(2,5-Dioxopyrrolidin-1-yl)-2-phenyl-N-(4-(trifluoromethyl)benzyl)acetamide], the responders at 100 mg/kg in series [1] (setting [5]) was 0%.
Regarding `O=C(NCCc1ccccc1F)C(c1ccccc1)N1C(=O)CCC1=O` (stereo not shown) [Compound 26, 2-(2,5-Dioxopyrrolidin-1-yl)-N-(2-fluorophenethyl)-2-phenylacetamide], the melting point is 142.4 to 142.8 °C. In addition, in series [1] (setting [5]), the responders at 100 mg/kg is 25%.
In turn, `O=C(NCCc1ccc(Cl)cc1)C(c1ccccc1)N1C(=O)CCC1=O` (stereo not shown) [Compound 28, N-(4-Chlorophenethyl)-2-(2,5-dioxopyrrolidin-1-yl)-2-phenylacetamide] gave a melting point of 137.2 to 137.8 °C. Also, in series [3], the TD50 at 0.5 h is 272 mg/kg. For the same compound, the “Rotarod test, number of mice / number of mice tested” value in series [4] was 1/4. The responders at 100 mg/kg in series [1] (setting [5]) was 100%. Besides, in series [1], the ED50 is 117 mg/kg. Further, in series [2], the responders at 100 mg/kg was 75% and the ED50 was 88.1 mg/kg.
The compound `O=C(NCCCc1ccccc1)C(c1ccccc1)N1C(=O)CCC1=O` (stereo not shown) [Compound 31, 2-(2,5-Dioxopyrrolidin-1-yl)-2-phenyl-N-(3-phenylpropyl)acetamide] yielded a melting point of 133.1 to 133.9 °C. In series [3], the TD50 at 0.5 h was above 300 mg/kg. The “Rotarod test, number of mice / number of mice tested” value in series [4] is recorded as 0/4. The responders at 100 mg/kg in series [1] (setting [6]) is at least 50%. In addition, the responders at 100 mg/kg in series [1] (setting [5]) is 50%. In addition, in series [2], the responders at 100 mg/kg was 50% and the ED50 amounted to 104 mg/kg.
